Test [1] concerns the target T1, MMP-2 (gelatinase A) (Homo sapiens, UniProt P08253).
T1 construct: made in house; host or cells: COS-1 cells transfected with human pro-MMP-2 cDNA (secreted into culture medium)
T1 sequence (P08253 110-660): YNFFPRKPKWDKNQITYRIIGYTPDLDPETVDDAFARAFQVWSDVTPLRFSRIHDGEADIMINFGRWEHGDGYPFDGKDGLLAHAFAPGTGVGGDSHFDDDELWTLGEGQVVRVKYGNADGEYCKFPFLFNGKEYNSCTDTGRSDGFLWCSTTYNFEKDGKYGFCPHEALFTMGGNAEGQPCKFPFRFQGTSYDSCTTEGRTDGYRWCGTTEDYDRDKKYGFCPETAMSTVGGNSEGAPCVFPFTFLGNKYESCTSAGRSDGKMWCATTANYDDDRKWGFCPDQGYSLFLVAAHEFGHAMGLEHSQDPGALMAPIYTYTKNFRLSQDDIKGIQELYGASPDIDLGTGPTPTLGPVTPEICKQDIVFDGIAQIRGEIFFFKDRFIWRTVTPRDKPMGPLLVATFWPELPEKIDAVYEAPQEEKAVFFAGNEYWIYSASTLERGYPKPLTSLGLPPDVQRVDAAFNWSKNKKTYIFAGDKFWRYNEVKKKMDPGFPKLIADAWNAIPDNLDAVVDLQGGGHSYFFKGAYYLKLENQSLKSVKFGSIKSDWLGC
In words: MMP-2 (gelatinase A) inhibitory activity, FITC-labeled type IV collagen degradation. The class given is biochemical. The following applies: 50% inhibition of collagen type IV degradation; activated pro MMP-2 from transfected COS-1 cells; 42° C., 4 h. Here is the method: (§1) Experiment 2: MMP-2 (gelatinase A) and MMP-9 (gelatinase B) inhibitory activities.
(§2) Pro MMP-2 was obtained from culture medium separated from human pro-MMP-2 cDNA tranfected COS-1 cells. It was activated by 1 mM (p-aminophenyl)mercury acetic acid, and MMP-9, derived human fibrosarcome,was purchased from Yagai Co. Ltd. Inhibition of both enzyme activities were estimated by enzyme assay using type IV collagenase activity assay kit (Yagai Co. Ltd., Biswaz, C. et al., J. Cell.Biochem., 28, 39 (1984)). MMP-2 or MMP-9 (0.01 U/ml), test compound (several concentrations), and FITC-labeled type IV collagen (derived bovine placenta, 25 μg) were incubated in 100 μl of 0.05M Tris - HCl buffer (pH 7.5) containing 200 mM NaCl and 5 mM CaCl2 at 42° C. for 4 h. Inhibitory activity of compound was evaluated by same as that of MMP-1 assay. Unchanged type IV collagen was precipitated by centrifugation, and the degradation percent of substrate was calculated by comparison with a fluorescence intensity of heat denatured substrate as 100%. Inhibition of enzyme activity was expressed as an IC50 value which was the concentration of test compound necessary to produce 50% inhibition of collagen type IV degradation by enzyme.

Test [2] addresses T2, MMP-9 (gelatinase B) (Homo sapiens, UniProt P14780).
T2 construct: purchased Yagai Co. Ltd; host or cells: human fibrosarcoma
Kind of test: MMP-9 (gelatinase B) inhibitory activity, FITC-labeled type IV collagen degradation. It counts as biochemical. The settings on record: 50% inhibition of collagen type IV degradation; MMP-9 derived from human fibrosarcoma; 42° C., 4 h. As to the method: as §1, §2

Bounds are passed on as bounds.

T2 sequence (P14780 94-707): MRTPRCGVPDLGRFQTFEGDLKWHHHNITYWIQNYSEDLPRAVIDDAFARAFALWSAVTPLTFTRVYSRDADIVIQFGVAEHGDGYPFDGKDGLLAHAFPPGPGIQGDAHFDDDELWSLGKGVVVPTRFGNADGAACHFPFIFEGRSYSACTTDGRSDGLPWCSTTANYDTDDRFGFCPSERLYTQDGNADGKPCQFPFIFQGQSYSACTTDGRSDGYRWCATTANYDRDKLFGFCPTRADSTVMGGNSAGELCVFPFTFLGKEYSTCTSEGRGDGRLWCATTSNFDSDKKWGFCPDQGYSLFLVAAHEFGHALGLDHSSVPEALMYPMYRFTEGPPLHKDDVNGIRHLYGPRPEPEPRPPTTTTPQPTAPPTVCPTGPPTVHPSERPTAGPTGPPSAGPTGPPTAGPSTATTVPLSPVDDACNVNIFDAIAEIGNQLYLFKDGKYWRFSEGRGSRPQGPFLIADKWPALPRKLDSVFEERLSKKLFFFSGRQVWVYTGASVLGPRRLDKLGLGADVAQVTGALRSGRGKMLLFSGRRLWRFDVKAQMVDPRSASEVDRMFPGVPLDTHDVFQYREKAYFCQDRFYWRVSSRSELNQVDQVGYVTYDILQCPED

For the molecule `CNC(=O)[C@@H](NC(=O)[C@H](CCCOc1ccc(OC)cc1)CC(=O)NO)C(C)(C)C` [Compound 54, N-[(2R)-2-(2'-Hydroxyamino-2'-oxo-ethyl)-5-[(4-methoxyphenyl)oxy]-pentanoyl]-L-tert-leucine N-Methylamide], the IC50 (commonly the concentration that gives 50% inhibition) in test [1] amounted to 5.6 nM; in test [2] it was 0.11 nM.

With `COc1ccc(OCCC[C@H](CC(=O)NO)C(=O)N[C@H](C(=O)NC(C)(C)C)C(C)(C)C)cc1` [Compound 55, N-[(2R)-2-(2'-Hydroxyamino-2'-oxo-ethyl)-5-[(4-methoxyphenyl)oxy]-pentanoyl]-L-tert-leucine N-tert-Butylamide], the IC50 in test [1] was determined as 21 nM; in test [2] it was 0.23 nM.

As for `COc1ccc(OCCC[C@H](CC(=O)NO)C(=O)N[C@H](C(=O)NCCS(N)(=O)=O)C(C)(C)C)cc1` [Compound 56, 2-[N-[(2R)-2-(2'-Hydroxyamino-2'-oxo-ethyl)-5-[(4-methoxyphenyl)oxy]pentanoyl]-L-tert-leucyl]amino-ethanesulfonamide], the IC50 is 2.3 nM in test [1] and 0.26 nM in test [2].

`CNC(=O)[C@@H]1Cc2ccccc2CN1C(=O)[C@H](CCCOc1ccc(OC)cc1)CC(=O)NO` [Compound 57, N-[(2R)-2-(2'-Hydroxyamino-2'-oxo-ethyl)-5-[(4-methoxyphenyl)oxy]pentanoyl]-L-tetrahydroisoquinoline N-Methylamide]: the IC50 in test [1] worked out at 37 nM; in test [2], 23 nM.

On to `CNC(=O)[C@H](Cc1ccccc1)NC(=O)[C@@H](CC(=O)NO)CC(C)(C)COC` [Compound 58, N-[(2R)-2-(2'-Hydroxyamino-2'-oxo-ethyl)-4,4-dimethyl-5-methoxy-pentanoyl]-L-phenylalanine N-Methylamide], for which the IC50 in test [1] is over 10000 nM; in test [2], 2200 nM.

In the case of `CNC(=O)[C@H](Cc1ccc(OC)cc1)NC(=O)[C@@H](CC(=O)NO)CC(C)(C)COC` [Compound 59, (2S)-2-[(2R)-2-(2'-Hydroxyamino-2'-oxo-ethyl)-4,4-dimethyl-5-methoxy-pentanoyl]amino-3-(4-methoxy)phenylpropanoyl-methylamide], the IC50 was 6800 nM in test [1] and 1500 nM in test [2].

Turning to `CNC(=O)[C@@H](NC(=O)[C@@H](CC(=O)NO)CC(C)(C)COC)C(C)(C)C` [Compound 60, N-[(2R)-2-(2'-Hydroxyamino-2'-oxo-ethyl)-4,4-dimethyl-5-methoxy-pentanoyl]-L-tert-leucine N-Methylamide], the IC50 in test [1] is over 10000 nM; in test [2] it was 6800 nM.

Turning to `CNC(=O)[C@H](Cc1ccccc1)NC(=O)[C@H](CCCOc1ccc(OC)cc1)CC(=O)OCc1oc(=O)oc1C` [Compound 61], the IC50 worked out at 1000 nM in test [1] and 110 nM in test [2].

Turning to `CCOc1ccc(OCCC[C@H](CC(=O)OCc2oc(=O)oc2C)C(=O)N[C@@H](Cc2ccccc2)C(=O)NC)cc1` [Compound 62], the values for the IC50 in test [1] and in test [2] were 500 nM and 120 nM, respectively.

Take `CNC(=O)[C@H](Cc1ccc(OC)cc1)NC(=O)[C@H](CCCOc1ccc(OC)cc1)CC(=O)OCc1oc(=O)oc1C` [Compound 63, (2S)-2-[(2R)-2-(2'-(5-Methyl-2-oxo-1,3-dioxolen-4-yl)-methylene-oxy-2'-oxo-ethyl]-5-[(4-methoxyphenyl)oxy]-pentanoyl]amino-3-(4-methoxy)phenylpropanoylmethylamide]: the IC50 in test [1] is 1600 nM; in test [2], 140 nM.

On to `CNC(=O)[C@H](Cc1ccc(OC)cc1)NC(=O)[C@H](CCCCOc1ccc(OC)cc1)CC(=O)OCc1oc(=O)oc1C` [Compound 64, (2S)-2-[(2R)-2-(2'-(5-Methyl-2-oxo-1,3-dioxolen-4-yl)-methylene-oxy-2'-oxo-ethyl]-6-[(4-methoxyphenyl)oxy]-hexanoyl]amino-3-(4-methoxy)phenylpropanoylmethylamide], for which the IC50 was 2300 nM in test [1] and 980 nM in test [2].

Values taken from patent publication US5990158A, “Carboxylic acid derivatives, method of manufacturing the same and therapeutic agents containing these compounds” (Kotobuki Seiyaku Co., Ltd., priority 1996, dated 1999).
